Data published in ChEMBL document CHEMBL5532634, “Oxazolidinone: A promising scaffold for the development of antibacterial drugs” (Eur J Med Chem, 2023).
≈ marks a conversion by molar mass, not a printed value.

Experiments:
Staphylococcus aureus [1] = assay: Antibacterial activity against Staphylococcus aureus ATCC 29213 assessed as reduction in microbial growth measured after 24 hrs by broth microdilution analysis; type: functional
Bacillus subtilis = assay: Antibacterial activity against Bacillus subtilis ATCC 6633 assessed as inhibition of bacterial growth incubated for 24 hrs by CLSI based broth microdilution method; type: functional
[2] = system: Staphylococcus epidermidis; assay: Antibacterial activity against Staphylococcus epidermidis ATCC 12228 assessed as reduction in bacterial growth measured after 24 hrs by broth microdilution method; type: functional
Staphylococcus aureus [3] = assay: In vivo antibacterial activity against Staphylococcus aureus UC9213 infected in PO dosed mouse assessed as reduction in bacterial infection measured after 6 days by hematoxylin and eosin staining based microscopic analysis; type: functional; details: UC9213, 144 h, time 6 day
Staphylococcus aureus [4] = assay: Antibacterial activity against Staphylococcus aureus UC9213 assessed as reduction in bacterial growth; type: functional
Staphylococcus aureus [5] = assay: Antibacterial activity against Linezolid-resistant Staphylococcus aureus assessed as reduction in bacterial growth; type: functional
Enterococcus faecium = assay: Antibacterial activity against Linezolid-resistant Enterococcus faecium assessed as reduction in bacterial growth; type: functional
[6] = system: Mycobacterium tuberculosis; assay: Antimycobacterial activity against Mycobacterium tuberculosis H37Rv assessed as reduction in bacterial growth incubated for 7 days by resazurin based assay; type: functional; details: 168 h, time 7 day
PC-3 = assay: Inhibition of mitochondrial protein synthesis in human PC-3 cells at 100 uM incubated for 5 days; type: functional, cell-based; details: PC-3, 120 h
Streptococcus pyogenes = assay: Antibacterial activity Streptococcus pyogenes ATCC 12344 assessed as reduction in microbial growth by broth microdilution method; type: functional
Staphylococcus aureus [7] = assay: Antibacterial activity against Staphylococcus aureus ATCC 25923 assessed as growth inhibition measured after 18 hrs by CLSI based method; type: functional
Streptococcus pneumoniae [8] = assay: Antibacterial activity against Streptococcus pneumoniae ATCC 49619 assessed as reduction in bacterial growth measured after 18 hrs by CLSI based analysis; type: functional
Moraxella catarrhalis [9] = assay: Antibacterial activity against wild type Moraxella catarrhalis incubated for 20 hrs by two-fold serial dilution method; type: functional
Haemophilus influenzae [10] = assay: Antibacterial activity against Haemophilus influenzae ATCC 49247 by broth microdilution method; type: functional
Streptococcus pneumoniae [11] = assay: Antibacterial activity against Streptococcus pneumoniae ATCC 49619 assessed as inhibition of bacterial growth incubated for 24 hrs by CLSI based broth microdilution method; type: functional
Staphylococcus aureus [12] = assay: Antibacterial activity against Staphylococcus aureus ATCC 29213 assessed as bacterial growth inhibition incubated for 24 hrs by broth dilution method; type: functional
Moraxella catarrhalis [13] = assay: Antibacterial activity against Moraxella catarrhalis UC30610 assessed as reduction in bacterial growth by broth microdilution method; type: functional
Staphylococcus aureus [14] = assay: In vivo Antibacterial activity against Methicillin-resistant Staphylococcus aureus in PO dosed mouse infected model assessed as reduction in bacterial load; type: functional
Enterococcus faecalis = assay: Antibacterial activity against Enterococcus faecalis UC9217 assessed as reduction in bacterial growth by broth microdilution method; type: functional
[15] = system: Staphylococcus epidermidis; assay: Antibacterial activity methicillin-resistant Staphylococcus epidermidis UC12084 assessed as reduction in bacterial growth by broth microdilution method; type: functional
Haemophilus influenzae [16] = assay: Antibacterial activity against Haemophilus influenzae UC30063 assessed as reduction in bacterial growth by broth microdilution method; type: functional
Staphylococcus aureus [17] = assay: Antibacterial activity against Methicillin-resistant Staphylococcus aureus assessed as reduction in microbial growth by Muller Hinton broth based dilution assay; type: functional
Staphylococcus aureus [18] = assay: Antibacterial activity against Staphylococcus aureus ATCC 29213 assessed as reduction in bacterial growth incubated for 24 hrs by Mueller Hinton Agar based plate analysis; type: functional
Staphylococcus aureus [19] = assay: Antibacterial activity against Methicillin-resistant Staphylococcus aureus assessed as inhibition of bacterial growth; type: functional
[20] = Clearance in CF1 mouse; type: ADME; details: in vivo
Staphylococcus aureus [21] = assay: Antibacterial activity against methicillin-susceptible Staphylococcus aureus assessed as inhibition of bacterial growth; type: functional
[22] = system: Mycobacterium tuberculosis; assay: Antimycobacterial activity against Mycobacterium tuberculosis H37Rv assessed as reduction in bacterial cell growth by resazurin reduction method; type: functional

SMILES: C[C@@H](O)C(=O)N1CC=C(c2c(F)cc(N3C[C@H](COc4ccon4)OC3=O)cc2F)CC1
- MIC (Staphylococcus aureus [1]): 0.25 µg/mL

SMILES: CC(=O)NC[C@H]1CN(c2cnc(N3CCN(C(=O)/C=C/c4ccco4)CC3)c(F)c2)C(=O)O1
- MIC (Bacillus subtilis): 4 µg/mL (≈ 8.74 µM)

SMILES: O=C(CO)N1CC=C(c2ccc(N3C[C@H](COc4cnsn4)OC3=O)cc2F)CC1
- MIC [2]: 0.13 µg/mL (≈ 0.299 µM)

SMILES: CC(=O)NC[C@H]1CC(c2ccc(C3=CCN(C(=O)CO)CC3)c(F)c2)=NO1
- ED50 (Staphylococcus aureus [3]): 9.1 mg/kg
- MIC (Staphylococcus aureus [4]): 1 µg/mL (≈ 2.66 µM)

SMILES: CC(=O)NC[C@H]1CN(c2ccc(N3CCN(c4c(F)cc5c(=O)c(C(=O)O)cn6c5c4OCC6C)CC3)c(F)c2)C(=O)O1 (stereo partly specified)
- MIC (Staphylococcus aureus [5]): 2 µg/mL (≈ 3.35 µM)
- MIC (Enterococcus faecium): 0.5 µg/mL (≈ 0.837 µM)

SMILES: COC(=O)NC[C@H]1CN(c2ccc(N3CC4(COC4)C3)c(F)c2)C(=O)O1 [TBI-223]
- MIC [6]: 0.6 µg/mL (≈ 1.64 µM)
- IC50 (PC-3): > 74 µM

SMILES: CC(=O)NC[C@H]1CN(c2ccc(-c3ccc(CNCc4cnn[nH]4)cc3)c(F)c2)C(=O)O1 [RADEZOLID]
- MIC (Streptococcus pyogenes): 0.25 µg/mL
- MIC (Staphylococcus aureus [7]): 1 µg/mL (≈ 2.28 µM)
- MIC (Streptococcus pneumoniae [8]): 0.25 µg/mL (≈ 0.57 µM)
- MIC90 (Moraxella catarrhalis [9]): 0.5 µg/mL (≈ 1.14 µM)
- MIC90 (Haemophilus influenzae [10]): 1 µg/mL (≈ 2.28 µM)

SMILES: CC(=O)NC[C@H]1CN(c2ccc(N3CCN(C(=O)c4ccco4)CC3)nc2)C(=O)O1
- MIC (Streptococcus pneumoniae [11]): > 64 µg/mL

SMILES: CC/C(S)=N\C[C@H]1CN(c2cc(F)c3c(c2)OC[C@@H]2CCCN32)C(=O)O1
- MIC (Staphylococcus aureus [12]): 0.5 µg/mL (≈ 1.32 µM)

SMILES: CC(=O)NC[C@H]1CN(c2ccc(-n3ccc(C#N)c3)c(F)c2)C(=O)O1
- MIC (Moraxella catarrhalis [13]): 2 µg/mL (≈ 5.84 µM)
- ED50 (Staphylococcus aureus [14]): 1.9 mg/kg
- MIC (Enterococcus faecalis): 0.125 µg/mL (≈ 0.365 µM)
- MIC [15]: 0.125 µg/mL (≈ 0.365 µM)
- MIC (Haemophilus influenzae [16]): 2 µg/mL (≈ 5.84 µM)

SMILES: Nc1cccc(S(=O)(=O)N2CCN(c3ccc(N4C[C@H](Cn5ccnn5)OC4=O)cc3F)CC2)c1
- MIC (Staphylococcus aureus [17]): 0.5 µg/mL

SMILES: O=C([C@H](O)CO)N1CC=C(c2c(F)cc(N3C[C@H](COc4ccon4)OC3=O)cc2F)CC1
- MIC (Staphylococcus aureus [1]): 0.25 µg/mL

SMILES: O=C1O[C@@H](Cn2ccnn2)CN1c1ccc(N2CCN(S(=O)(=O)c3cccc([N+](=O)[O-])c3)CC2)c(F)c1
- MIC (Staphylococcus aureus [17]): 0.5 µg/mL

SMILES: CC(=O)NC[C@H]1CN(c2ccc3c(c2)OC[C@@H]2CCCN32)C(=O)O1
- MIC (Staphylococcus aureus [18]): 4 µg/mL (≈ 12.1 µM)

SMILES: CC(=O)NC[C@H]1CN(c2ccc(-n3cc(C#N)nn3)c(F)c2)C(=O)O1
- MIC (Moraxella catarrhalis [13]): 2 µg/mL (≈ 5.81 µM)
- ED50 (Staphylococcus aureus [14]): 1.2 mg/kg
- MIC (Enterococcus faecalis): 0.125 µg/mL (≈ 0.363 µM)
- MIC [15]: 0.125 µg/mL (≈ 0.363 µM)
- MIC (Haemophilus influenzae [16]): 2 µg/mL (≈ 5.81 µM)

SMILES: O=C([C@@H](O)CO)N1CC=C(c2c(F)cc(N3C[C@H](COc4ccon4)OC3=O)cc2F)CC1 [POSIZOLID]
- MIC (Staphylococcus aureus [1]): 0.25 µg/mL

SMILES: CC(=O)NC[C@H]1CN(c2ccc(N3CCOCC3)c(F)c2)C(=O)O1 [LINEZOLID]
- MIC (Staphylococcus aureus [19]): 1 µg/mL (≈ 2.96 µM)
- clearance [20]: 10.5 mL/min/kg
- MIC (Staphylococcus aureus [21]): 1 µg/mL (≈ 2.96 µM)

SMILES: O=C1O[C@@H](Cn2ccnn2)CN1c1ccc(N2CCN(S(=O)(=O)c3cccc(C(F)(F)F)c3)CC2)c(F)c1
- MIC (Staphylococcus aureus [17]): 0.5 µg/mL

SMILES: CN1CCN(c2ccc(N3C[C@H](CO)OC3=O)cc2F)C=N1 [DELPAZOLID]
- MIC [22]: 0.5 µg/mL (≈ 1.62 µM)
